In US12391648B2, “Pyridyloxy thioester derivative and preparation method therefor, herbicidal composition, and application” (Qingdao Kingagroot Chemical Compound Co., Ltd., priority 2018, dated 2025):

Columns and labels:
Assay in all cases: Post-emergence test experiment (Table 3, 1000 g/ha)
Format in all cases: in vivo
Settings in all cases: post-emergence spray, after 3 weeks, fresh weight inhibition
[1] = test system: Leptochloa chinensis
How it was run: (§1)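 Activity graded levels 0-5 by fresh-weight inhibition (level 5 above 85%, level 0 below 5%), assessed 3 weeks after treatment. Plants grown in greenhouse pots were sprayed post-emergence at 2-3 leaves using acetone/tween-80 solutions with methyl oleate synergist (1.5 L/ha).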

[2] = test system: Digitaria sanguinalis
How it was run: as §1

[3] = test system: Abutilon theophrasti
How it was run: as §1

[4] = test system: Setaria viridis
How it was run: as §1

[5] = test system: Monochoria vaginalis
How it was run: as §1

[6] = test system: Galium spurium
How it was run: as §1

SMILES | Activity level (growth inhibition rate) Leptochloa chinensis [1] | Activity level (growth inhibition rate) Digitaria sanguinalis [2] | Activity level (growth inhibition rate) Abutilon theophrasti [3] | Activity level (growth inhibition rate) Setaria viridis [4] | Activity level (growth inhibition rate) Monochoria Vaginalis [5] | Activity level (growth inhibition rate) Galium spurium [6]
CC(Oc1nc(F)c(Cl)c(N)c1Cl)C(=O)SCC(F)(F)C(F)(F)F (stereo not drawn) [Compound 80] | 5 (Level 5: the growth inhibition rate is greater than 85%) | 5 (Level 5: the growth inhibition rate is greater than 85%) | 5 (Level 5: the growth inhibition rate is greater than 85%) | 5 (Level 5: the growth inhibition rate is greater than 85%) | 5 (Level 5: the growth inhibition rate is greater than 85%) | 5 (Level 5: the growth inhibition rate is greater than 85%)
CC(Oc1nc(F)c(Cl)c(N)c1Cl)C(=O)SC1CC1 (stereo not drawn) [Compound 81] | 5 (Level 5: the growth inhibition rate is greater than 85%) | 5 (Level 5: the growth inhibition rate is greater than 85%) | 5 (Level 5: the growth inhibition rate is greater than 85%) | 5 (Level 5: the growth inhibition rate is greater than 85%) | 5 (Level 5: the growth inhibition rate is greater than 85%) | 5 (Level 5: the growth inhibition rate is greater than 85%)
COSC(=O)C(C)Oc1nc(F)c(Cl)c(N)c1Cl (stereo not drawn) [Compound 83] | 5 (Level 5: the growth inhibition rate is greater than 85%) | 5 (Level 5: the growth inhibition rate is greater than 85%) | 5 (Level 5: the growth inhibition rate is greater than 85%) | 5 (Level 5: the growth inhibition rate is greater than 85%) | 5 (Level 5: the growth inhibition rate is greater than 85%) | 5 (Level 5: the growth inhibition rate is greater than 85%)
COCCSC(=O)C(C)Oc1nc(F)c(Cl)c(N)c1Cl (stereo not drawn) [Compound 85] | 5 (Level 5: the growth inhibition rate is greater than 85%) | 5 (Level 5: the growth inhibition rate is greater than 85%) | 5 (Level 5: the growth inhibition rate is greater than 85%) | 5 (Level 5: the growth inhibition rate is greater than 85%) | 5 (Level 5: the growth inhibition rate is greater than 85%) | 5 (Level 5: the growth inhibition rate is greater than 85%)
CCOCSC(=O)C(C)Oc1nc(F)c(Cl)c(N)c1Cl (stereo not drawn) [Compound 86] | 5 (Level 5: the growth inhibition rate is greater than 85%) | 5 (Level 5: the growth inhibition rate is greater than 85%) | 5 (Level 5: the growth inhibition rate is greater than 85%) | 5 (Level 5: the growth inhibition rate is greater than 85%) | 5 (Level 5: the growth inhibition rate is greater than 85%) | 5 (Level 5: the growth inhibition rate is greater than 85%)
C=CCSC(=O)C(C)Oc1nc(F)c(Cl)c(N)c1Cl (stereo not drawn) [Compound 89] | 5 (Level 5: the growth inhibition rate is greater than 85%) | 5 (Level 5: the growth inhibition rate is greater than 85%) | 5 (Level 5: the growth inhibition rate is greater than 85%) | 5 (Level 5: the growth inhibition rate is greater than 85%) | 5 (Level 5: the growth inhibition rate is greater than 85%) | 5 (Level 5: the growth inhibition rate is greater than 85%)
C#CCSC(=O)C(C)Oc1nc(F)c(Cl)c(N)c1Cl (stereo not drawn) [Compound 90] | 5 (Level 5: the growth inhibition rate is greater than 85%) | 5 (Level 5: the growth inhibition rate is greater than 85%) | 5 (Level 5: the growth inhibition rate is greater than 85%) | 5 (Level 5: the growth inhibition rate is greater than 85%) | 5 (Level 5: the growth inhibition rate is greater than 85%) | 5 (Level 5: the growth inhibition rate is greater than 85%)
CC(Oc1nc(F)c(Cl)c(N)c1Cl)C(=O)SC/C=C/Cl (stereo not drawn) [Compound 91] | 5 (Level 5: the growth inhibition rate is greater than 85%) | 5 (Level 5: the growth inhibition rate is greater than 85%) | 5 (Level 5: the growth inhibition rate is greater than 85%) | 5 (Level 5: the growth inhibition rate is greater than 85%) | 5 (Level 5: the growth inhibition rate is greater than 85%) | 5 (Level 5: the growth inhibition rate is greater than 85%)
CC(Oc1nc(F)c(Cl)c(N)c1Cl)C(=O)SCC(Cl)=C(Cl)Cl (stereo not drawn) [Compound 92] | 5 (Level 5: the growth inhibition rate is greater than 85%) | 5 (Level 5: the growth inhibition rate is greater than 85%) | 5 (Level 5: the growth inhibition rate is greater than 85%) | 5 (Level 5: the growth inhibition rate is greater than 85%) | 5 (Level 5: the growth inhibition rate is greater than 85%) | 5 (Level 5: the growth inhibition rate is greater than 85%)
COC(=O)CSC(=O)C(C)Oc1nc(F)c(Cl)c(N)c1Cl (stereo not drawn) [Compound 93] | 5 (Level 5: the growth inhibition rate is greater than 85%) | 5 (Level 5: the growth inhibition rate is greater than 85%) | 5 (Level 5: the growth inhibition rate is greater than 85%) | 5 (Level 5: the growth inhibition rate is greater than 85%) | 5 (Level 5: the growth inhibition rate is greater than 85%) | 5 (Level 5: the growth inhibition rate is greater than 85%)
CCOC(=O)CSC(=O)C(C)Oc1nc(F)c(Cl)c(N)c1Cl (stereo not drawn) [Compound 94] | 5 (Level 5: the growth inhibition rate is greater than 85%) | 5 (Level 5: the growth inhibition rate is greater than 85%) | 5 (Level 5: the growth inhibition rate is greater than 85%) | 5 (Level 5: the growth inhibition rate is greater than 85%) | 5 (Level 5: the growth inhibition rate is greater than 85%) | 5 (Level 5: the growth inhibition rate is greater than 85%)
COC(=O)C(C)SC(=O)C(C)Oc1nc(F)c(Cl)c(N)c1Cl (stereo not drawn) [Compound 95] | 5 (Level 5: the growth inhibition rate is greater than 85%) | 5 (Level 5: the growth inhibition rate is greater than 85%) | 5 (Level 5: the growth inhibition rate is greater than 85%) | 5 (Level 5: the growth inhibition rate is greater than 85%) | 5 (Level 5: the growth inhibition rate is greater than 85%) | 5 (Level 5: the growth inhibition rate is greater than 85%)
C=CCOC(=O)C(C)(C)SC(=O)C(C)Oc1nc(F)c(Cl)c(N)c1Cl (stereo not drawn) [Compound 96] | 5 (Level 5: the growth inhibition rate is greater than 85%) | 5 (Level 5: the growth inhibition rate is greater than 85%) | 5 (Level 5: the growth inhibition rate is greater than 85%) | 5 (Level 5: the growth inhibition rate is greater than 85%) | 5 (Level 5: the growth inhibition rate is greater than 85%) | 5 (Level 5: the growth inhibition rate is greater than 85%)
CC(Oc1nc(F)c(Cl)c(N)c1Cl)C(=O)SCC(=O)N(C)C (stereo not drawn) [Compound 99] | 5 (Level 5: the growth inhibition rate is greater than 85%) | 5 (Level 5: the growth inhibition rate is greater than 85%) | 5 (Level 5: the growth inhibition rate is greater than 85%) | 5 (Level 5: the growth inhibition rate is greater than 85%) | 5 (Level 5: the growth inhibition rate is greater than 85%) | 5 (Level 5: the growth inhibition rate is greater than 85%)
